The values that follow come from BindingDB's records for aid1799745 (Csar, 2012).

The Kd is the concentration at which binding is half-saturated. Low values mean a tighter complex, high ones a looser complex.

Where only a bound is given, the exact number is not on record here.

The target in the test is T1, UDP-3-O-acyl-N-acetylglucosamine deacetylase (Aquifex aeolicus (strain VF5), UniProt O67648).
T1 sequence (O67648 whole entry): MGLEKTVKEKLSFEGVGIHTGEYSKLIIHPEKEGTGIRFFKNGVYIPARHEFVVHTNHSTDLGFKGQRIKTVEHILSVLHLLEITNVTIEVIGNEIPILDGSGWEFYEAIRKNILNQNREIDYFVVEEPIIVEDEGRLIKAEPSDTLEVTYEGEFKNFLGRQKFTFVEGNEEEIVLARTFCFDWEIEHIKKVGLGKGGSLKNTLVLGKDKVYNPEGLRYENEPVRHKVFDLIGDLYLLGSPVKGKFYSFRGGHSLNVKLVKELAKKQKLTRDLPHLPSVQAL
The test can be described thus: Thermofluor. To be noted: pH 7; 25 °C. (DSF heats the sample and reads unfolding from a dye or from intrinsic fluorescence.)
The molecule `O=C(NO)c1csc(-c2ccc(OC(F)(F)F)c(Cl)c2)n1` [CS275] showed an equilibrium dissociation constant (Kd) of 21.5 µM.

Consider `CC1(CNC(=O)c2ccc(-c3ccccc3)cc2)NC(=O)NC1=O` (stereo unspecified) [CS21], for which the Kd was over 100 µM.

`CC1(CNC(=O)[C@H](CN)NC(=O)c2ccc(-c3ccc(Br)cc3)cc2)NC(=O)NC1=O` (stereo partly specified) [CS267]: the dissociation constant (Kd) was over 100 µM.

In the case of `O=C(NO)[C@H]1COC(c2ccc(OC(F)(F)F)c(Cl)c2)=N1` [CS270], the affinity, expressed as Kd, was 3.8 µM.

`O=C(NO)c1csc(-c2ccc(F)c(C(F)(F)F)c2)n1` [CS277] displayed a Kd of 2.91 µM.

With `C[C@@H](O)[C@H](NC(=O)c1ccc(-c2ccccc2)cc1)C(=O)NO` [CS263], the dissociation constant (Kd) came to 0.075 µM.

For the molecule `O=C(NO)[C@H]1COC(c2ccc(F)c(C(F)(F)F)c2)=N1` [CS271], the affinity, expressed as Kd, was 1.03 µM.

`CC1(CNC(=O)c2ccc(C#CC#Cc3ccccc3)cc2)NC(=O)NC1=O` (stereo unspecified) [CS243]: the Kd amounted to 63.9 µM.

In turn, `O=C(NO)[C@H]1COC(c2ccc(OCc3cccc(F)c3)c(OC(F)(F)F)c2)=N1` [CS269] displayed a Kd of over 100 µM.

`CC1(CNC(=O)[C@H](CN)NC(=O)c2ccc(C#Cc3ccccc3)cc2)NC(=O)NC1=O` (stereo partly specified) [CS266] came in with a Kd of over 100 µM.

Molecule `CC1(CNC(=O)c2ccc(-c3ccc(Br)cc3)cc2)NC(=O)NC1=O` (stereo unspecified) [CS23] showed a Kd of over 100 µM.

`O=C(NO)[C@H]1COC(c2ccc([N+](=O)[O-])cc2)=N1` [CS268] gave a dissociation constant Kd of 7.25 µM.

`CC1(CNC(=O)[C@H](CN)NC(=O)c2ccc(-c3ccccc3)cc2)NC(=O)NC1=O` (stereo partly specified) [CS264] showed a Kd of over 100 µM.

`CN(C)c1ccc(-c2nc(C(=O)NO)cs2)cc1` [CS278] displayed a Kd of 28.2 µM.

Regarding `NC[C@H](NC(=O)c1ccc(C#CC#Cc2ccccc2)cc1)C(=O)NO` [CS252], binding was put at a Kd of 0.059 µM.

`NC[C@H](NC(=O)c1ccc(-c2ccc(Br)cc2)cc1)C(=O)NO` [CS250]: binding was put at a Kd of 0.19 µM.

Turning to `NC[C@H](NC(=O)c1ccc(-c2ccccc2)cc1)C(=O)NO` [CS249], binding was put at a Kd of 0.393 µM.

Consider `C[C@@H](O)[C@H](NC(=O)c1ccc(C#Cc2ccccc2)cc1)C(=O)NO` [CS259], for which the equilibrium dissociation constant (Kd) turned out to be 0.02 µM.

`O=C(NO)[C@H]1COC(c2ccc(F)cc2)=N1` [CS279] gave a dissociation constant Kd of 11.1 µM.

Take `CC1(CNC(=O)[C@H](CN)NC(=O)c2ccc(C#CC#Cc3ccccc3)cc2)NC(=O)NC1=O` (stereo partly specified) [CS265]: the Kd was over 100 µM.

`C[C@@H](O)[C@H](NC(=O)c1ccc(C#CC#Cc2ccccc2)cc1)C(=O)NO` [CS257] gave a Kd of 0.008 µM.

`CCCc1ccc(-c2ccc(C3=N[C@@H](C(=O)NO)CO3)cc2)cc1` [CS274] showed an equilibrium dissociation constant (Kd) of 15.6 µM.

Take `O=C(NO)C1=C[SiH2]C(c2ccc(F)cc2)=N1` (stereo unspecified) [CS276]: the Kd was 28.5 µM.

`C[C@@H](O)[C@H](NC(=O)c1ccc(C#Cc2ccccc2)cc1)C(=O)NCC1(C)NC(=O)NC1=O` (stereo partly specified) [CS254] returned a dissociation constant (Kd) of over 100 µM.

As to `C[C@@H](O)[C@H](NC(=O)c1ccc(C#CC#Cc2ccccc2)cc1)C(=O)NCC1(C)NC(=O)NC1=O` (stereo partly specified) [CS255], the Kd was over 100 µM.

In turn, `C[C@@H](O)[C@H](NC(=O)c1ccc(-c2ccccc2)cc1)C(=O)NCC1(C)NC(=O)NC1=O` (stereo partly specified) [CS253] came in with a dissociation constant (Kd) of over 100 µM.

In the case of `CN(C)c1ccc(C2=N[C@@H](C(=O)NO)CO2)cc1` [CS273], the Kd is over 100 µM.

`CC1(CNC(=O)c2ccc(C#Cc3ccccc3)cc2)NC(=O)NC1=O` (stereo unspecified) [CS22] gave an equilibrium dissociation constant (Kd) of 93.4 µM.

Molecule `O=C(NO)[C@H]1COC(c2cc3cc(F)ccc3[nH]2)=N1` [CS272] had an equilibrium dissociation constant (Kd) of 2.5 µM.

Consider `C[C@@H](O)[C@H](NC(=O)c1ccc(-c2ccc(Br)cc2)cc1)C(=O)NO` [CS258], for which the affinity, expressed as Kd, was 0.033 µM.

`C[C@@H](O)[C@H](NC(=O)c1ccc(-c2ccc(Br)cc2)cc1)C(=O)NCC1(C)NC(=O)NC1=O` (stereo partly specified) [CS256] yielded a Kd of over 100 µM.
